The NIST ThermoML archive (doi:10.1021/je400178k)

Experiment: molar heat capacity at constant pressure; xn = mol fraction of the nth substance listed
Settings: 101 kPa, Liquid, Small sample (50 mg) DSC

CN1CCN(C)CC1 [1,4-dimethylpiperazine] + O
molar heat capacity at constant pressure [J/K/mol]
Settings | x1 = 0.1 | x1 = 0.2007 | x1 = 0.2992 | x1 = 0.4011 | x1 = 0.5 | x1 = 0.6015 | x1 = 0.6993 | x1 = 0.799 | x1 = 0.8983 | x1 = 1
298.15 K | 108.6 | 122.7 | 135.3 | 148.5 | 159.8 | 171.1 | 183.7 | 195.4 | 206.1 | 216.5
303.15 K | 110.2 | 124.5 | 137.6 | 150.9 | 162.6 | 174.8 | 188.1 | 199.9 | 211.3 | 221.7
308.15 K | 111.1 | 125.9 | 139.7 | 152.3 | 164.9 | 176.4 | 189.9 | 202.1 | 212.6 | 222.1
313.15 K | 112 | 127.8 | 141.9 | 154.4 | 166.7 | 178.5 | 192.3 | 204.4 | 214.6 | 223.4
318.15 K | 113 | 129.8 | 144.1 | 156.5 | 169 | 180.6 | 194.4 | 206.7 | 216.5 | 224.6
323.15 K | 114.3 | 132.1 | 146.3 | 158.2 | 171 | 182.5 | 196.6 | 208.8 | 218 | 225.3
328.15 K | 115.5 | 134.5 | 148.7 | 160.6 | 172.7 | 184.8 | 198.7 | 210.8 | 219.8 | 225.7
333.15 K | 116.4 | 136.4 | 151.5 | 163.3 | 174.8 | 186.4 | 200.6 | 213.1 | 221.6 | 227.5
338.15 K | 117.4 | 137.7 | 153.5 | 165.8 | 177.1 | 188.5 | 202.8 | 215.2 | 223.5 | 228.5
343.15 K | 118.4 | 139.3 | 156.2 | 169 | 179.7 | 191.4 | 205.4 | 217.7 | 225.5 | 229.6
348.15 K | 119.5 | 141 | 157.8 | 171.3 | 182.6 | 194.4 | 208.5 | 220.6 | 227.9 | 231.7
353.15 K | 120.8 | 142.4 | 159.4 | 173.6 | 185.7 | 198.7 | 213.5 | 225.5 | 233.5 | 235.9

OCCN1CCOCC1 [4-morpholineethanol] + O
molar heat capacity at constant pressure [J/K/mol]
Settings | x1 = 0.0998 | x1 = 0.1985 | x1 = 0.2979 | x1 = 0.3969 | x1 = 0.4952 | x1 = 0.6017 | x1 = 0.7031 | x1 = 0.7657 | x1 = 0.8977 | x1 = 1
298.15 K | 101 | 120.8 | 140.3 | 159.5 | 177.4 | 195.6 | 212.8 | 223.5 | 246.5 | 263.9
303.15 K | 102.4 | 123.6 | 142.6 | 162.4 | 180 | 198 | 214.7 | 226 | 248.4 | 265.3
308.15 K | 103.8 | 125.7 | 144.6 | 165 | 182.6 | 200.3 | 217.1 | 228.3 | 250.8 | 267.1
313.15 K | 105.4 | 127.9 | 146.7 | 167.8 | 185.5 | 203 | 219.7 | 230.8 | 253.1 | 269.2
318.15 K | 107.2 | 130.4 | 148.9 | 171 | 188.6 | 205.9 | 222.5 | 233.3 | 255 | 270.8
323.15 K | 109 | 133 | 152.3 | 174.4 | 191.8 | 208.7 | 225.5 | 235.8 | 257 | 272.6
328.15 K | 111.4 | 136 | 156.3 | 178.4 | 195.5 | 211.8 | 228.7 | 238.6 | 259.1 | 274.3
333.15 K | 114.2 | 139.3 | 160.3 | 183 | 199.7 | 215.6 | 232.5 | 242.5 | 261.7 | 276.2
338.15 K | 117.4 | 143.2 | 165 | 188.6 | 204.6 | 220.1 | 237 | 246.3 | 264.7 | 278.7
343.15 K | 121.1 | 147.7 | 170.6 | 194.6 | 209.9 | 225.4 | 241.6 | 250.3 | 267.9 | 281
348.15 K | 125.9 | 152.9 | 178.7 | 201.6 | 215.9 | 231 | 246.6 | 254.8 | 271.2 | 283.2
353.15 K | 131.9 | 159.5 | 187 | 209.9 | 222.5 | 236.4 | 252.2 | 259.4 | 274.8 | 284.9

OCCN1CCNCC1 [N-(2-hydroxyethyl)piperazine] + O
molar heat capacity at constant pressure [J/K/mol]
Settings | x1 = 0.0999 | x1 = 0.2 | x1 = 0.2921 | x1 = 0.3916 | x1 = 0.4896 | x1 = 0.6011 | x1 = 0.6947 | x1 = 0.7952 | x1 = 0.8939 | x1 = 1
298.15 K | 104.2 | 126.9 | 145.8 | 165.4 | 184.7 | 206.4 | 224.8 | 244.6 | 264.2 | 285
303.15 K | 105.7 | 129.2 | 149.2 | 169.1 | 188.3 | 210.1 | 228.7 | 248.9 | 268.8 | 289.9
308.15 K | 107.1 | 131.5 | 151.9 | 171.5 | 191 | 212.7 | 231.4 | 251.8 | 271.6 | 292.9
313.15 K | 108.6 | 133.9 | 154.8 | 174.4 | 194.1 | 215.8 | 234.5 | 254.5 | 274.4 | 296
318.15 K | 110.4 | 136.1 | 157.5 | 177.5 | 196.8 | 218.2 | 237.1 | 257.2 | 277.2 | 298.9
323.15 K | 112.2 | 139 | 160.7 | 179.9 | 199.4 | 220.7 | 239.6 | 259.8 | 279.8 | 301.7
328.15 K | 114.3 | 142.3 | 164.2 | 182.4 | 202 | 223.7 | 242.6 | 262.7 | 282.8 | 305
333.15 K | 115.7 | 144.9 | 167.3 | 185.7 | 204.7 | 226.3 | 245.3 | 265.5 | 285.7 | 308.1
338.15 K | 118.5 | 148 | 170.6 | 188.1 | 207.5 | 229.1 | 248.2 | 268.2 | 288.4 | 311
343.15 K | 120.8 | 150.6 | 173.3 | 190.9 | 210.1 | 232 | 250.8 | 270.8 | 291.1 | 313.9
348.15 K | 122.5 | 153 | 175.6 | 194 | 212.8 | 234.8 | 253.5 | 273.3 | 293.6 | 316.5
353.15 K | 124 | 155.5 | 177.9 | 197.6 | 215.5 | 237.5 | 256.1 | 275.8 | 296.1 | 319
